Measurements reported in patent publication US8975298B2, “Therapeutic agent for pain” (ONO Pharmaceutical Co., Ltd., priority 2005, dated 2015).
“And” between values parts separate entries of the source, which are not always exact repeats. Equal values may be shown once.

Assays:
[1] = tested on: spinal nerve ligation model rats; experiment: Latent time of pain response to heat stimulus (heat hyperalgesia) in rat spinal nerve ligation model; type: in vivo
Procedure: (§1) Male rats were used in the experiment. Spinal nerve ligation models were made in accordance with the method of Kim & Chung (Kim, S. H. & Chung, J. M., An experimental model for peripheral neuropathy produced by segmental spinal nerve ligation in the rat, Pain, 50, 355-363, 1992). Namely, the fifth lumber nerve in one side was strongly ligated with silken threads.
(§2) More specifically, the models were made in the following manner.
(§3) After intraperitoneally administering 40 mg/kg (liquid volume 0.8 ml/kg) of pentobarbital (Nenbutal Injection (trade name), Dainippon Pharmaceutical Co., Ltd.), a rat was fixed in the dorsal position under anesthesia and the abdomen was incised in the median line with scissors. The intestines and the like were pushed aside with sterilized gauze and the abdominal aorta and the abdominal vein were confirmed. Then, the muscle located immediately below the iliolumbar vein was cleaved with tweezers. After confirming the fourth lumber nerve and the fifth lumber nerve in the muscle, the fifth lumber nerve (L5) was ligated with 6-0 silken threads. Subsequently, the intestines having been pushed away were returned to the original positions. 5 ml of physiological saline (otsuka Pharmaceutical Factory, Inc.) containing ampicillin sodium (Viccillin for Injection (trade name), Meiji Seika Kaisha, Ltd.) (ampicillin concentration: 20 mg/ml) was poured into the peritoneal cavity, and the abdominal muscles and skin were sutured with a nylon thread.
From immediately after the spinal nerve ligation, 30 mg/kg of (2R)-2-propyloctanoic acid was orally administered once a day for 14 days (14 times in total). Also, vehicle control was administered in the same manner. […]
On the next day of the final administration, the latent time of heat stimulus was measured. Namely, right and left footpads were irradiated with infrared light of a halogen lamp from the lower side, and the time until the occurrence of an escape response (the latent time of pain reaction: sec) was measured.

[2] = tested on: spinal nerve ligation model rats; experiment: Escape threshold of contact stimulus, von Frey filaments (contact allodynia) in rat spinal nerve ligation model; type: in vivo
Procedure: as §1, §2, §3
From immediately after the spinal nerve ligation, 30 mg/kg of (2R)-2-propyloctanoic acid was orally administered once a day for 14 days (14 times in total). Also, vehicle control was administered in the same manner.
(3-2) Measurement of Escape Threshold of Contact Stimulus (Evaluation of Contact Allodynia)
On the next day of the final administration, the escape threshold of a contact stimulus was measured. Namely, filaments (von Frey filaments: VFF) were pressed against right and left footpads from the lower side. Then, the VFF indication at the occurrence of an escape response was recorded and converted into weight (g).

dogs = settings: dog, in vivo, iv, 100 mg/kg
Description: Since the toxicity of (2R)-2-propyloctanoic acid, a salt thereof or a prodrug thereof is extremely low, it can be considered to be sufficiently safe for medicinal uses.

[3] = 30 mg/kg orally once a day for 14 days from immediately after L5 ligation, measured next day after final administration, injured (operated-on) side
[4] = 30 mg/kg orally once a day for 14 days from immediately after L5 ligation, measured next day after final administration, normal (opposite) side
[5] = 30 mg/kg orally, 14 days, injured side vs vehicle control, p<0.01 Welch test

## CCCCCC[C@@H](CCC)C(=O)O [(2R)-2-propyloctanoic acid]
[1]; [3]
  Latent time of pain response (sec) Injured side: 13.61 s and 13.61 ± 6.76 s
[1]; [4]
  Latent time of pain response (sec) Normal side: 19.00 s and 19.00 ± 5.58 s
[1]; [5]
  Analgesic effect on heat hyperalgesia: an analgesic effect on heat hyperalgesia was confirmed
[2]; [3]
  Escape threshold of contact stimulus (g) Injured side: 14.7 g and 14.7 ± 12.7 g
[2]; [4]
  Escape threshold of contact stimulus (g) Normal side: 66.1 g and 66.1 ± 29.8 g
[2]; [5]
  Analgesic effect on contact allodynia: an analgesic effect on contact allodynia was confirmed
dogs
  Fatal cases: no fatal case was observed
